Where a name gives a salt, the structure may show the parent alone.
| Compound | melting point |
| --- | --- |
| COC(=O)c1ccc(F)c2c1CC(N(CCCc1c[nH]c3ccc(F)cc13)C1CCC1)CO2 (stereo not shown) (as salt: hydrochloride) [Compound 11, Methyl 3-{cyclobutyl[3-(5-fluoro-1H-indol-3-yl)propyl]amino}-8-fluorochromane-5-carboxylate] | 110 °C (dec.) |
| CCCN(CCC(O)c1csc2ccc(F)cc12)C1COc2c(F)ccc(C(N)=O)c2C1 (stereo not shown) (as salt: hydrochloride) [Compound 17, 8-fluoro-3-[[3-(5-fluoro-1-benzothien-3-yl)-3-hydroxypropyl](propyl)amino]chromane-5-carboxamide] | 117 °C (dec.) |
| CCCN(CCCc1csc2ccc(F)cc12)C1COc2cccc(OC)c2C1 (stereo not shown) (as salt: hydrochloride) [Compound 19, N-[3-(5-fluoro-1-benzothien-3-yl)propyl]-5-methoxy-N-propylchroman-3-amine] | 78 °C (dec.) |
| CCCN(CCCc1c[nH]c2ccc(F)cc12)C1COc2cccc(OC)c2C1 (stereo not shown) (as salt: hydrochloride) [Compound 23, [3-(5-fluoro-1H-indol-3-yl)propyl]-N-(5-methoxy-chroman-3-yl)propylamine] | 117 to 120 °C |
| CCN(CCCc1c[nH]c2ccc(F)cc12)C1COc2cccc(OC)c2C1 (stereo not shown) (as salt: hydrochloride) [Compound 31, N-ethyl-N-[3-(5-fluoro-1H-indol-3-yl)propyl]-5-methoxychroman-3-amine] | 91.2 °C (dec.) |
| COc1cccc2c1CC(N(CCCc1c[nH]c3ccc(F)cc13)C1CCC1)CO2 (stereo not shown) (as salt: hydrochloride) [Compound 34, N-cyclobutyl-N-[3-(5-fluoro-1H-indol-3-yl)propyl]-5-methoxychroman-3-amine] | 70.5 °C (dec.) |
| COc1cccc2c1C[C@@H](N(CCCc1c[nH]c3ccc(F)cc13)C1CCC1)CO2 (as salt: hydrochloride) [Compound 35, (3R)-N-cyclobutyl-N-[3-(5-fluoro-1H-indol-3-yl)propyl]-5-methoxy-3,4-dihydro-2H-chromen-3-amine] | 115 °C (dec.) |
| COc1cccc2c1CC(N(CCCc1c[nH]c3ccc(F)cc13)CC1CC1)CO2 (stereo not shown) (as salt: hydrochloride) [Compound 37, N-(cyclopropylmethyl)-N-[3-(5-fluoro-1H-indol-3-yl)propyl]-N-(5-methoxy-3,4-dihydro-2H-chromen-3-yl)amine] | 114 °C (dec.) |

More lines, now with the values ahead:

| melting point | Compound |
| --- | --- |
| 114 to 118 °C (dec.) | CCCN(CCCc1coc2ccccc12)C1COc2c(F)ccc(C(N)=O)c2C1 (stereo not shown) (as salt: hydrochloride) [Compound 20, 3-[[3-(1-benzofuran-3-yl)propyl](propyl)amino]-8-fluorochromane-5-carboxamide] |
| 152 to 154 °C | CCN(CCCCc1coc2ccccc12)C1COc2cccc(OC)c2C1 (stereo not shown) (as salt: hydrochloride) [Compound 22, N-[4-(1-benzofuran-3-yl)butyl]-N-ethyl-N-(5-methoxy-3,4-dihydro-2H-chromen-3-yl)amine] |
| 89 °C (dec.) | COc1cccc2c1CC(N(CCCCc1c[nH]c3ccc(F)cc13)C1CCC1)CO2 (stereo not shown) (as salt: hydrochloride) [Compound 36, N-cyclobutyl-N-[4-(5-fluoro-1H-indol-3-yl)butyl]-N-(5-methoxy-3,4-dihydro-2H-chromen-3-yl)amine] |
| 86 °C (dec.) | COc1cccc2c1CC(N(CCCc1cn(C)c3ccc(F)cc13)CC1CC1)CO2 (stereo not shown) (as salt: hydrochloride) [Compound 38, N-(cyclopropylmethyl)-N-[3-(5-fluoro-1-methyl-1H-indol-3-yl)propyl]-N-(5-methoxy-3,4-dihydro-2H-chromen-3-yl)amine] |
| 112 °C (dec.) | COc1cccc2c1CC(N(CCCc1c[nH]c3ccc(F)cc13)C1CCCC1)CO2 (stereo not shown) (as salt: hydrochloride) [Compound 39, N-cyclopentyl-N-[3-(5-fluoro-1H-indol-3-yl)propyl]-N-(5-methoxy-3,4-dihydro-2H-chromen-3-yl)amine] |

Reference: patent US20050032873A1, “3-Amino chroman and 2-amino tetralin derivatives” (Wyeth, priority 2003, published 2005)
